pIC50: −log10 of the molar value.
System: OVCAR-5 complex spheroid (HUVEC/MSC), viability % T/C
Assay: Anticancer human tumor OVCAR-5 cell line growth inhibition [Asc];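 further: spheroids exposed to agents for 7 days before readout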;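 on viability, T/C: 100% = DMSO vehicle-treated wells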
Conditions: for pIC50: curve of first compound; for viability, T/C: stronger effect = lower value
Method in brief: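 Complex spheroids combining tumor cells with HUVEC endothelial cells and human MSCs, at 37 degrees C, 5% CO2; agents tested alone or combined, half-log dilutions from at or near clinical Cmax, or 10 microM if Cmax unknown.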

[1] = second compound 0.1 µM, first compound 0.0316 µM
[2] = second compound 0.1 µM, first compound 0.1 µM
[3] = second compound 0.1 µM, first compound 0.316 µM
[4] = second compound 0.1 µM, first compound 1 µM
[5] = second compound 0.1 µM, first compound 3.16 µM
[6] = second compound 0.1 µM, first compound 10 µM
[7] = second compound 0.316 µM, first compound 0.0316 µM
[8] = second compound 0.316 µM, first compound 0.1 µM
[9] = second compound 0.316 µM, first compound 0.316 µM
[10] = second compound 0.316 µM, first compound 1 µM
[11] = second compound 0.316 µM, first compound 3.16 µM
[12] = second compound 0.316 µM, first compound 10 µM
[13] = second compound 1 µM, first compound 0.0316 µM
[14] = second compound 1 µM, first compound 0.1 µM
[15] = second compound 1 µM, first compound 0.316 µM
[16] = second compound 1 µM, first compound 1 µM
[17] = second compound 1 µM, first compound 3.16 µM
[18] = second compound 1 µM, first compound 10 µM
[19] = second compound 3.16 µM, first compound 0.0316 µM
[20] = second compound 3.16 µM, first compound 0.1 µM
[21] = second compound 3.16 µM, first compound 0.316 µM
[22] = second compound 3.16 µM, first compound 1 µM
[23] = second compound 10 µM, first compound 0.0316 µM
[24] = second compound 10 µM, first compound 0.1 µM
[25] = second compound 10 µM, first compound 0.316 µM
[26] = second compound 10 µM, first compound 1 µM

SMILES | pIC50 (second compound 0.1 µM) | pIC50 (second compound 0.316 µM) | pIC50 (second compound 1 µM) | viability, T/C [1] [%] | viability, T/C [2] [%] | viability, T/C [3] [%] | viability, T/C [4] [%] | viability, T/C [5] [%] | viability, T/C [6] [%] | viability, T/C [7] [%] | viability, T/C [8] [%] | viability, T/C [9] [%] | viability, T/C [10] [%] | viability, T/C [11] [%] | viability, T/C [12] [%] | viability, T/C [13] [%] | viability, T/C [14] [%] | viability, T/C [15] [%] | viability, T/C [16] [%] | viability, T/C [17] [%] | also measured
C=CC(=O)N1CCN(c2nc(=O)n(-c3c(C)ccnc3C(C)C)c3nc(-c4c(O)cccc4F)c(F)cc23)C(C)C1 (stereo not given) + CNC(C)C(=O)NC1CN(S(=O)(=O)c2cccc(S(=O)(=O)N3CCC4CCC(C(=O)NC(c5ccccc5)c5ccccc5)N4C(=O)C(NC(=O)C(C)NC)C3)c2)CCC2CCC(C(=O)NC(c3ccccc3)c3ccccc3)N2C1=O | < 5.00 | < 5.00 | < 5.00 | 76.3 | 87 | 90.6 | 88.2 | 109 | 103 | 76.4 | 83.5 | 84.9 | 90.4 | 104 | 109 | 92.9 | 100 | 90.4 | 96.7 | 103 | pIC50 (second compound 0.01 µM): < 5.00; pIC50 (second compound 0.0316 µM): < 5.00; viability, T/C (second compound 0.01 µM, first compound 0.0316 µM): 88.4%; viability, T/C (second compound 0.01 µM, first compound 0.1 µM): 89.9%; viability, T/C (second compound 0.01 µM, first compound 0.316 µM): 85.9%; viability, T/C (second compound 0.01 µM, first compound 1 µM): 100%; viability, T/C (second compound 0.01 µM, first compound 3.16 µM): 115%; viability, T/C (second compound 0.01 µM, first compound 10 µM): 105%; viability, T/C (second compound 0.0316 µM, first compound 0.0316 µM): 74.4%; viability, T/C (second compound 0.0316 µM, first compound 0.1 µM): 84.4%; viability, T/C (second compound 0.0316 µM, first compound 0.316 µM): 83.3%; viability, T/C (second compound 0.0316 µM, first compound 1 µM): 91.2%; viability, T/C (second compound 0.0316 µM, first compound 3.16 µM): 106%; viability, T/C (second compound 0.0316 µM, first compound 10 µM): 104%; viability, T/C [18]: 102%
O=C(c1cc(Cc2n[nH]c(=O)c3ccccc23)ccc1F)N1CCN(C(=O)C2CC2)CC1 + Cc1c(S(C)(=O)=O)c(-c2cc(F)cc(N3CCN(c4ccc(NS(=O)(=O)c5ccc(NC(CCN6CCC(C(=O)OCCCP(=O)(O)O)CC6)CSc6ccccc6)c(S(=O)(=O)C(F)(F)F)c5)cc4)CC3)c2)c(-c2ccc(Cl)cc2)n1C(C)C | < 5.00 | < 5.00 | < 5.00 | 103 | 101 | 90.8 | 82.6 | 91.5 | 76.1 | 95.8 | 95.6 | 84.8 | 79.6 | 83.6 | 78.5 | 92.2 | 89.8 | 88 | 81.4 | 78.4 | pIC50 (second compound 3.16 µM): < 5.00; pIC50 (second compound 10 µM): < 5.00; viability, T/C [18]: 62.6%; viability, T/C [19]: 86.2%; viability, T/C [20]: 94.1%; viability, T/C [21]: 82.3%; viability, T/C [22]: 75.4%; viability, T/C (second compound 3.16 µM, first compound 3.16 µM): 73.4%; viability, T/C (second compound 3.16 µM, first compound 10 µM): 64.7%; viability, T/C [23]: 130%; viability, T/C [24]: 128%; viability, T/C [25]: 114%; viability, T/C [26]: 95.5%; viability, T/C (second compound 10 µM, first compound 3.16 µM): 94.1%; viability, T/C (second compound 10 µM, first compound 10 µM): 73.6%
COc1c(OCCCN2CCOCC2)ccc2c3n(c(=NC(=O)c4cnc(N)nc4)nc12)CCN3 + Cc1c(S(C)(=O)=O)c(-c2cc(F)cc(N3CCN(c4ccc(NS(=O)(=O)c5ccc(NC(CCN6CCC(C(=O)OCCCP(=O)(O)O)CC6)CSc6ccccc6)c(S(=O)(=O)C(F)(F)F)c5)cc4)CC3)c2)c(-c2ccc(Cl)cc2)n1C(C)C | 7.55 | 7.74 | 7.75 | 46.5 | 22 | 14.2 | 5.21 | – | – | 37 | 20.3 | 9.08 | 2.87 | – | – | 35.3 | 10.8 | 5.94 | 2.46 | – | pIC50 (second compound 3.16 µM): 7.81; pIC50 (second compound 10 µM): 7.75; viability, T/C (second compound 0.1 µM, first compound 0.00316 µM): 81.8%; viability, T/C (second compound 0.1 µM, first compound 0.01 µM): 73.3%; viability, T/C (second compound 0.316 µM, first compound 0.00316 µM): 74.7%; viability, T/C (second compound 0.316 µM, first compound 0.01 µM): 63.4%; viability, T/C (second compound 1 µM, first compound 0.00316 µM): 68.8%; viability, T/C (second compound 1 µM, first compound 0.01 µM): 65.4%; viability, T/C (second compound 3.16 µM, first compound 0.00316 µM): 64.5%; viability, T/C (second compound 3.16 µM, first compound 0.01 µM): 63.7%; viability, T/C [19]: 29.7%; viability, T/C [20]: 10.2%; viability, T/C [21]: 3.29%; viability, T/C [22]: 1.07%; viability, T/C (second compound 10 µM, first compound 0.00316 µM): 86.5%; viability, T/C (second compound 10 µM, first compound 0.01 µM): 68.7%; viability, T/C [23]: 31.2%; viability, T/C [24]: 7.93%; viability, T/C [25]: 2.43%; viability, T/C [26]: 1.35%

— PubChem BioAssay AID1963436 (Molecular Pharmacology Branch, DTP, NCI, 2024)
